# In US20190021380A1 (priority 2014, published 2019):
# Where a name gives a salt, the structure may show the parent alone. Read-outs that look alike come from different tables or passages of the source.
# Key:
# T1R1/T1R3 receptor = T1R1/T1R3 receptor (Felis catus, UniProt E3UMS2); assay type: cell-based; conditions: for EC50 +buffer (alone): compound alone in buffer
# Source text: (§1) HEK293 cells that stably express T1R3 and inducibly express T1R1 were exposed to transmembrane compounds alone or in combination with one or more amino acids and/or one or more nucleotides to activate the umami receptor. Activation of the T1R1/T1R3 receptor was detected by a change in intracellular calcium levels using a calcium sensitive fluorescent dye. Cells that express T1R3 but not T1R1 were used as a control. A FLIPR® Tetra or a FlexStation® 3 was used for data capture.
# In each experiment, serial dilutions of up to 10 mM of the transmembrane compound were added to the T1R1/T1R3-expressing cells.
# cat T1R1/T1R3 receptor = cat T1R1/T1R3 receptor (Felis catus, UniProt E3UMS2); assay: cell-based; conditions: for function as activators of T1R1/T1R3: in the presence of alanine, in words; for Max resp % of IMP / Max. resp. % of IMP: hek293 cells
# Source text: as §1, with “nucleotide derivatives” for “transmembrane compounds”, “dye and/or a luminescent reporter system.” for “dye.”
# [1] = threshold in the presence of 0.2 mM IMP, CNBD = Could not be determined
# [2] = in the presence of 20 mM alanine, read-out: EC50-with Ala
# [3] = EC50 (mM), + Alanine (20 mM), Table 15
compound,measurement,setting,value
"O=C(O)[C@@H]1CCCN1 [L-Proline, proline]",EC50 +IMP (0.2 mM),T1R1/T1R3 receptor,CNBD
same,Max resp % of Ala +IMP (0.2 mM),T1R1/T1R3 receptor,CNBD
same,Max resp ΔF/F +IMP (0.2 mM),T1R1/T1R3 receptor,CNBD
same,Thres +IMP (0.2 mM),T1R1/T1R3 receptor,CNBD
"O=C(O)C1CCCCC1C(=O)Nc1cc(Cl)cc(Cl)c1 (stereo not shown) [2-((3,5-dichlorophenyl)carbamoyl)cyclohexanecarboxylic acid]",Thres +IMP (0.2 mM),T1R1/T1R3 receptor; [1],0.03 mM
"N[C@@H](Cc1c[nH]cn1)C(=O)O [L-Histidine, L-histidine]",Thres +IMP (0.2 mM),T1R1/T1R3 receptor; [1],10.0 mM
O=C(NCCc1ccccc1)c1ccccc1 [N-phenethylbenzamide],Max resp ΔF/F +IMP (0.2 mM),"T1R1/T1R3 receptor; in the presence of 0.2 mM IMP, CNBD = Could not be determined",0.9800 ΔF/F
same,Thres +IMP (0.2 mM),T1R1/T1R3 receptor; [1],0.01 mM
"O=C(NCCc1ccccc1)c1ccc2c(c1)OCO2 [N-phenethylbenzo[d][1,3]dioxole-5-carboxamide]",EC50 +Alanine (20 mM),T1R1/T1R3 receptor,CNBD
same,Thres +IMP (0.2 mM),T1R1/T1R3 receptor; [1],0.01 mM
CC(=O)Nc1ccc(C(=O)Nc2cc(-c3ccccc3)nn2CCO)cc1 [4-acetamido-N-(1-(2-hydroxyethyl)-3-phenyl-1H-pyrazol-5-yl)benzamide],EC50 +Alanine (20 mM),T1R1/T1R3 receptor,CNBD
same,Thres +Alanine (20 mM),T1R1/T1R3 receptor,CNBD
same,EC50 +buffer (alone),T1R1/T1R3 receptor; CNBD = Could not be determined,CNBD
same,Thres +IMP (0.2 mM),T1R1/T1R3 receptor; [1],CNBD
"CCCCc1nn(CC(=O)N2CCCC2)c(=O)n1Cc1ccccc1 [4-benzyl-3-butyl-1-(2-oxo-2-(pyrrolidin-1-yl)ethyl)-1H-1,2,4-triazol-5(4H)-one]",Thres +IMP (0.2 mM),T1R1/T1R3 receptor; [1],0.1 mM
O=P(O)(O)OCC1OC(n2cnc3c(Nc4ccccc4)ncnc32)C(O)C1O (stereo not shown),EC50,"cat T1R1/T1R3 receptor; EC50-with Ala (mM), in the presence of 20 mM alanine",> 1 mM
"O=C(NCCCCNC(=O)c1cccnc1)c1cccnc1 [N,N′-(butane-1,4-diyl)dinicotinamide]",EC50 +Alanine (20 mM),T1R1/T1R3 receptor,CNBD
same,EC50 +buffer (alone),T1R1/T1R3 receptor; CNBD = Could not be determined,CNBD
same,Thres +IMP (0.2 mM),T1R1/T1R3 receptor; [1],0.1 mM
"N[C@@H](CO)C(=O)O [L-Serine, serine]",Thres +IMP (0.2 mM),T1R1/T1R3 receptor; [1],3.0 mM
"Nc1ncnc2c1ncn2[C@H]1CC(OP(=O)(O)O)[C@@H](COP(=O)(O)O)O1 (stereo partly shown) [2′-Deoxyadenosine-3′,5′-O-bisphosphate]",Thres,cat T1R1/T1R3 receptor,0.005 mM
O=c1[nH]cnc2c1ncn2C1CC(O)C(COP(O)(O)=S)O1 (stereo not shown) [2′-Deoxyinosine-5′-O-monophosphorothioate],Thres,cat T1R1/T1R3 receptor,0.025 mM
CNc1ncnc2c1ncn2[C@@H]1O[C@H](COP(=O)(O)O)[C@@H](O)[C@H]1O [N6-Methyladenosine 5′-monophosphate],Thres,cat T1R1/T1R3 receptor,0.020 mM
NC(=O)c1ncn(C2OC(COP(=O)(O)O)C(O)C2O)n1 (stereo not shown) [Ribavirin 5′-Monophosphate],Thres,cat T1R1/T1R3 receptor,0.175 mM
"Nc1ncnc2c1ncn2C1OC(COP(=O)(O)OS(=O)(=O)O)C(O)C1O (stereo not shown) [Adenosine 5′-phosphosulfate sodium salt, Adenosine 5′-phosphosulfate]",Thres,cat T1R1/T1R3 receptor,0.008 mM
same,EC50,cat T1R1/T1R3 receptor; EC50 (mM),0.03 mM
"Nc1nc2c(ncn2[C@@H]2O[C@H](COP(=O)(O)O)[C@@H](O)[C@H]2O)c(=O)[nH]1 [GMP, guanosine monophosphate, reference compound]",EC50,cat T1R1/T1R3 receptor; [2],0.02 mM
"Nc1ncnc2c1ncn2[C@@H]1O[C@H](COP(=O)(O)O)[C@@H](O)[C@H]1O [adenosine monophosphate (AMP), adenosine monophosphate, reference compound]",EC50,cat T1R1/T1R3 receptor; EC50-with Ala (mM),0.011 mM
Nc1nc2c(nc(Br)n2[C@@H]2O[C@H](COP(=O)(O)O)[C@@H](O)[C@H]2O)c(=O)[nH]1 [8-Bromoguanosine-5′-O-monophosphate],Thres,cat T1R1/T1R3 receptor,1 mM
"2′-, 3′-O—(N′-methylanthraniloyl)guanosine-5′-O-monophosphate",function as activators of T1R1/T1R3,cat T1R1/T1R3 receptor,activators of T1R1/T1R3
O=c1ccn([C@H]2C[C@H](O)[C@@H](COP(O)(O)=S)O2)c(=O)[nH]1 [2′-Deoxyuridine-5′-O-monophosphosphorothioate],EC50,cat T1R1/T1R3 receptor; EC50 (mM),> 30 mM
same,EC50,cat T1R1/T1R3 receptor; EC50-with Ala (mM),> 30 mM
Nc1nc2c(ncn2[C@@H]2O[C@H](COP(=O)(O)O)[C@@H](O)[C@H]2O)c(=S)[nH]1 [6-thioguanosine-5′-O-monophosphate],EC50,cat T1R1/T1R3 receptor; [2],0.0009 mM
same,function as activators of T1R1/T1R3,cat T1R1/T1R3 receptor,activators of T1R1/T1R3
Nc1nc2c(ncn2[C@@H]2O[C@H](COP(O)(O)=S)C(O)C2O)c(=O)[nH]1 (stereo partly shown) [Guanosine-5′-monophosphorothioate],Thres,cat T1R1/T1R3 receptor,0.0025 mM
same,function as activators of T1R1/T1R3,cat T1R1/T1R3 receptor,activators of T1R1/T1R3
"Nc1nc2c(ncn2[C@H]2C[C@H](O)[C@@H](COP(O)(O)=S)O2)c(=O)[nH]1 [2′-Deoxyguanosine-5′-O-monophosphorothioate,sodiumsalt]",Thres,cat T1R1/T1R3 receptor,0.0025 mM
same,Max resp % of IMP,cat T1R1/T1R3 receptor,86.7 % of IMP
Nc1ncnc2c1ccn2[C@H]1O[C@@H](COP(=O)(O)O)[C@H](O)[C@@H]1O (stereo in doubt) [7-Deazaadenosine-5′-O-monophosphate],Thres,cat T1R1/T1R3 receptor,0.188 mM
"CNc1ncnc2c1ncn2[C@H]1C[C@H](OP(=O)(O)O)[C@@H](COP(=O)(O)O)O1 [MRS 2179 ammonium salt hydrate, 2′-Deoxy-N^6-methyl adenosine 3′,5′-diphosphate diammonium salt]",Activity,cat T1R1/T1R3 receptor,active
same,Thres,cat T1R1/T1R3 receptor,0.013 mM
"O=P(O)(O)OC[C@H]1O[C@@H](n2cnc3c2ncn2ccnc32)C[C@@H]1O [2′-Deoxy-1,N6-ethenoadenosine-5′-O-monophosphate]",Thres,cat T1R1/T1R3 receptor,0.05 mM
same,EC50,cat T1R1/T1R3 receptor; [2],0.2 mM
"O=c1ccn([C@@H]2O[C@H](COP(=O)(O)O)[C@@H](O)[C@H]2O)c(=O)[nH]1 [UMP, uridine monophosphate, reference compound]",EC50,cat T1R1/T1R3 receptor; EC50-with Ala (mM),> 30 mM
"O=P(O)(O)OC[C@H]1O[C@@H](n2cnc3c2ncn2ccnc32)[C@H](O)[C@@H]1O [1,N6-Ethenoadenosine-5′-O-monophosphate]",Thres,cat T1R1/T1R3 receptor,0.010 mM
"Nc1ncnc2c1ncn2[C@@H]1O[C@H](COP(=O)(O)O)[C@@H](O)[C@H]1O [Adenosine 5′-monophosphate disodium salt, reference compound]",Thres,cat T1R1/T1R3 receptor,0.003 mM
Nc1nc(Cl)c2ncn(C3OC(COP(=O)(O)O)C(O)C3O)c2n1 (stereo not shown) [2-amino-6-chloropurineriboside-5′-O-monophosphate],Activity,cat T1R1/T1R3 receptor,active
same,Thres,cat T1R1/T1R3 receptor,0.00013 mM
same,Threshold,cat T1R1/T1R3 receptor,0.00013 mM
CNc1ccccc1C(=O)O[C@H]1C[C@H](n2cnc3c(N)ncnc32)O[C@@H]1COP(=O)(O)O [2′-Deoxy-3′-O-(N′-methylanthraniloyl)adenosine-5′-O-monophosphate],Thres,cat T1R1/T1R3 receptor,0.0025 mM
same,EC50,cat T1R1/T1R3 receptor; [2],0.01 mM
Nc1ncnc2c1ncn2C1CC(O)C(COP(O)(O)=S)O1 (stereo not shown) [2′-Deoxyadenosine-5′-O-monophosphorothioate],Thres,cat T1R1/T1R3 receptor,0.015 mM
CNc1ccccc1C(=O)O[C@H]1C[C@H](n2cnc3c(=O)[nH]c(N)nc32)O[C@@H]1COP(=O)(O)O [2′-Deoxy-3′-O-(N′-methylanthraniloyl) guanosine-5′-O-monophosphate],Activity,cat T1R1/T1R3 receptor,active
same,Thres,cat T1R1/T1R3 receptor,0.0025 mM
same,Max resp % of IMP,cat T1R1/T1R3 receptor,23.7 % of IMP
same,Max. resp. % of IMP,cat T1R1/T1R3 receptor,23.7 % of IMP
same,function as activators of T1R1/T1R3,cat T1R1/T1R3 receptor,activators of T1R1/T1R3
O=c1ccn(C2OC(COP(=O)(O)N3CCOCC3)C(O)C2O)c(=O)[nH]1 (stereo not shown),EC50,cat T1R1/T1R3 receptor; [3],> 3 mM
Nc1ncnc2c1ncn2[C@H]1C[C@H](O)[C@@H](COP(=O)(O)O)O1 [2′-Deoxyadenosine 5′-monophosphate],Thres,cat T1R1/T1R3 receptor,0.035 mM
Nc1ncnc2c1nc(Cl)n2[C@@H]1O[C@H](COP(=O)(O)O)[C@@H](O)[C@H]1O [8-Chloroadenosine-5′-O-monophosphate],Thres,cat T1R1/T1R3 receptor,0.2 mM
same,EC50,cat T1R1/T1R3 receptor; [3],0.8 mM
same,Max resp % of IMP,cat T1R1/T1R3 receptor,63.6 % of IMP
same,Max. resp. % of IMP,cat T1R1/T1R3 receptor,63.6 % of IMP
NC(=O)c1ncn(C2OC(COP(=O)(O)O)C(O)C2O)c1N [5-Aminoimidazole-4-carboxamide-1-β-D-ribofuranosyl 5′-monophosphate],Thres,cat T1R1/T1R3 receptor,0.200 mM
O=P(O)(O)OC[C@H]1O[C@@H](n2cnc3c(NC4CCCC4)ncnc32)[C@H](O)[C@@H]1O [N6-Cyclopentyladenosine-5′-O-monophosphate],Thres,cat T1R1/T1R3 receptor,0.013 mM
O=c1ccn([C@H]2O[C@@H](COP(=O)(O)O)[C@H](O)[C@@H]2O)c(=O)[nH]1 (stereo in doubt) [Uridine 5′-monophosphate disodium salt],EC50,cat T1R1/T1R3 receptor; EC50-with Ala (mM),> 30 mM
CC(=O)Nc1nc2c(ncn2[C@@H]2O[C@H](COP(=O)(O)O)[C@@H](O)[C@H]2O)c(=O)[nH]1 [N-Acetyl-5′-GMP],Thres,cat T1R1/T1R3 receptor,0.025 mM
Nc1nc2c(ncn2[C@H]2C[C@H](O)[C@@H](COP(O)(O)=S)O2)c(=O)[nH]1 [2′-Deoxyguanosine-5′-O-monophosphorothioate (5′-dGMPS)],Thres,cat T1R1/T1R3 receptor,0.005 mM
"Nc1ncnc2c1ncn2C1OC(COP(=O)(O)O)C(OP(=O)(O)O)C1O (stereo not shown) [Adenosine 3′,5′-diphosphate sodium salt, adenosine 3′,5′-diphosphate]",Thres,cat T1R1/T1R3 receptor,0.00025 mM
O=c1ccn([C@H]2C[C@H](O)[C@@H](COP(O)(O)=S)O2)c(=O)[nH]1 [2′-Deoxyuridine-5′-O-monophosphosphorothioate (5′-dUMPS)],Activity,cat T1R1/T1R3 receptor,active
same,Max resp ΔF/F,cat T1R1/T1R3 receptor,0.4200 ΔF/F
same,Max resp. (ΔF/F),cat T1R1/T1R3 receptor,0.4200 ΔF/F
same,Thres,cat T1R1/T1R3 receptor,5.000 mM
same,Threshold,cat T1R1/T1R3 receptor,5.000 mM
same,Max resp % of IMP,cat T1R1/T1R3 receptor,43.4 % of IMP
O=c1nc[nH]c2c1ncn2C1O[C@H](COP(=O)(O)OP(=O)(O)OP(=O)(O)O)[C@@H](O)[C@H]1O (stereo partly shown) [inosine triphosphate (ITP) trisodium salt],Max resp ΔF/F,cat T1R1/T1R3 receptor,0.3 ΔF/F
same,Max resp. (ΔF/F),cat T1R1/T1R3 receptor,0.3 ΔF/F
same,Thres,cat T1R1/T1R3 receptor,0.02 mM
same,Threshold,cat T1R1/T1R3 receptor,0.02 mM
